# The source made the active and inactive calls. No cut-off for these calls is given here.
# How the values were obtained:
# [1] = tested on: DU-145; assay: Induction of cell cycle arrest in human DU-145 cells assessed as accumulation of cells at G0/G1 phase measured after 24 hrs by PI staining based flow cytometry analysis; assay type: functional; conditions: dose <= 10.0 µM
# [2] = biological target: T1, Signal transducer and activator of transcription 3 (Homo sapiens, UniProt P40763); assay: Inhibition of STAT3 in human DU-145 cells assessed as downregulation of c-myc expression at upto 10 uM measured after 24 hrs; assay type: cell-based
# T1 sequence (P40763 whole entry): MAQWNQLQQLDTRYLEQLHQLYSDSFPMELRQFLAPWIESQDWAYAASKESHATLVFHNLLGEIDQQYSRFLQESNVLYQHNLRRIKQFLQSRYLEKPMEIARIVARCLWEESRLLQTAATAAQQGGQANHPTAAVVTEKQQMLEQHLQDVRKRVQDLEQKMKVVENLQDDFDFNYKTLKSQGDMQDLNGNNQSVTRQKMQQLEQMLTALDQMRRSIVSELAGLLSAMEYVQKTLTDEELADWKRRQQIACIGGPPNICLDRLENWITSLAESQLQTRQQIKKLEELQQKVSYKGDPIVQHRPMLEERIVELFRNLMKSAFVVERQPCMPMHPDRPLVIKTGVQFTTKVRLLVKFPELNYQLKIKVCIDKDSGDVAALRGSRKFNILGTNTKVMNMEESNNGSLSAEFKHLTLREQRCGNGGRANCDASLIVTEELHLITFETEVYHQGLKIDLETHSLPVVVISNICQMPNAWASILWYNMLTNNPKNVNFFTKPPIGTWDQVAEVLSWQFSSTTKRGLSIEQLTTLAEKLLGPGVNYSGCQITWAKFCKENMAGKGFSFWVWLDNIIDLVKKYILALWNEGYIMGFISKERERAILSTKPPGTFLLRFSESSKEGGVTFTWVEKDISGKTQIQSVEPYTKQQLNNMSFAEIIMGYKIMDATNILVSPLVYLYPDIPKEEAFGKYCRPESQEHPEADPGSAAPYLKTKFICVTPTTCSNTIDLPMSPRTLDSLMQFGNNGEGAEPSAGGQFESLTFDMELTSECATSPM
# [3] = Drug concentration in ICR mouse plasma at 50 mg/kg, po measured after 2 to 8 hrs; assay type: ADME, organism-based; conditions: in vivo, time 2-8 hrs
# [4] = tested on: MDA-MB-231; assay: Induction of apoptosis in human MDA-MB-231 cells assessed as cell apoptotic percentage at 10 uM measured after 48 hrs by annexin V-FITC and PI staining based flow cytometry analysis relative to control; assay type: functional
# [5] = Metabolic stability in mouse liver microsomes assessed as intrinsic clearance in presence of NADPH/UDPGA; assay type: ADME, Microsome; conditions: read-out: CLH
# [6] = tested on: DU-145; assay: Induction of apoptosis in human DU-145 cells measured after 48 hrs by annexin V-FITC and PI staining based flow cytometry analysis; assay type: functional, cell-based; conditions: dose <= 10.0 µM
# [7] = tested on: MDA-MB-231; assay: Induction of apoptosis in human MDA-MB-231 cells assessed as late apoptotic cells at 1 uM measured after 48 hrs by annexin V-FITC and PI staining based flow cytometry analysis (reference value: 3.1%); assay type: functional
# [8] = Drug concentration in ICR mouse plasma at 5 mg/kg, iv measured at 2 mins; assay type: ADME, organism-based
# [9] = tested on: MDA-MB-231; assay: Induction of apoptosis in human MDA-MB-231 cells assessed as early apoptotic cells at 10 uM measured after 48 hrs by annexin V-FITC and PI staining based flow cytometry analysis (reference value: 6.7%); assay type: functional
# [10] = MRT (0 to t) in ICR mouse at 5 mg/kg, iv measured upto 96 hrs by HPLC-MS/MS analysis; assay type: ADME, organism-based; conditions: in vivo
# [11] = Half life in ICR mouse at 50 mg/kg, po measured upto 96 hrs by HPLC-MS/MS analysis; assay type: ADME, organism-based; conditions: in vivo
# [12] = Solubility of compound in water incubated for 10 mins; assay type: physicochemical
# [13] = tested on: DU-145; assay: Induction of apoptosis in human DU-145 cells assessed as late apoptotic cells at 10 uM measured after 48 hrs by annexin V-FITC and PI staining based flow cytometry analysis (reference value: 2.0%); assay type: functional
# [14] = tested on: MDA-MB-231; assay: Induction of apoptosis in human MDA-MB-231 cells assessed as induction of PARP cleavage at upto 10 uM measured after 48 hrs by […]; assay type: functional, cell-based
# [15] = Antiproliferative activity against human PBMC cells assessed as inhibition of cell growth measured after 96 hrs by MTT assay; assay type: functional, cell-based
# [16] = Volume of distribution at steady state in ICR mouse at 50 mg/kg, po measured upto 96 hrs by HPLC-MS/MS analysis; assay type: ADME, organism-based; conditions: in vivo
# [17] = tested on: HEK-Blue IL-6; assay: Inhibition of IL-6/JAK/STAT3 signalling pathway in HEK-Blue IL-6 cells at 10 uM incubated for 16 hrs by QUANTI-blue assay relative to control; assay type: cell-based; conditions: Homo sapiens
# [18] = tested on: DU-145; assay: Induction of apoptosis in human DU-145 cells assessed as early apoptotic cells at 5 uM measured after 48 hrs by annexin V-FITC and PI staining based flow cytometry analysis (reference value: 2.5%); assay type: functional
# [19] = MRT (0 to infinity) in ICR mouse at 50 mg/kg, po measured upto 96 hrs by HPLC-MS/MS analysis; assay type: ADME, organism-based; conditions: in vivo
# [20] = Volume of distribution at steady state in ICR mouse at 5 mg/kg, iv measured upto 96 hrs by HPLC-MS/MS analysis; assay type: ADME, organism-based; conditions: in vivo, read-out: Vdss
# [21] = biological target: T1, Signal transducer and activator of transcription 3; assay: Inhibition of STAT3 phosphorylation at Tyr705 residue in human MDA-MB-231 cells incubated for 24 hrs by Western blot analysis; assay type: cell-based; conditions: dose <= 10.0 µM
# [22] = MRT (0 to infinity) in ICR mouse at 5 mg/kg, iv measured upto 96 hrs by HPLC-MS/MS analysis; assay type: ADME, organism-based; conditions: in vivo
# [23] = Clearance in ICR mouse at 5 mg/kg, iv measured upto 96 hrs by HPLC-MS/MS analysis; assay type: ADME, organism-based; conditions: in vivo
# [24] = AUC (0 to t) in ICR mouse at 50 mg/kg, po measured upto 96 hrs by HPLC-MS/MS analysis; assay type: ADME, organism-based; parameters: dose 50 mg/kg, time < 96 hrs, route po; conditions: in vivo
# [25] = Toxicity in Balb/c mouse assessed as effect on body weight loss at 50 mg/kg, ip administered once daily for 16 days; assay type: organism-based; conditions: in vivo, 384 h, time 16 day
# [26] = tested on: MDA-MB-231; assay: Induction of cell cycle arrest in human MDA-MB-231 cells assessed as accumulation of cells at G0/G1 phase measured after 24 hrs by PI staining based flow cytometry analysis; assay type: functional; conditions: dose <= 10.0 µM
# [27] = tested on: DU-145; assay: Induction of apoptosis in human DU-145 cells assessed as induction of PARP cleavage at upto 10 uM measured after 48 hrs by […]; assay type: functional, cell-based
# [28] = Toxicity in Balb/c mouse assessed as effect on liver at 50 mg/kg by hematoxylin and eosin staining based histopathological analysis; assay type: organism-based; conditions: in vivo
# [29] = tested on: DU-145; assay: Antiproliferative activity against human DU-145 cells assessed as inhibition of cell growth at 10 uM measured after 96 hrs by MTT assay relative to control; assay type: functional
# [30] = Toxicity in Balb/c mouse assessed as serious adverse effect at 50 mg/kg, ip administered once daily for 16 days; assay type: organism-based; conditions: in vivo, 384 h, time 16 day
# [31] = Cmax in ICR mouse at 5 mg/kg, iv measured upto 96 hrs by HPLC-MS/MS analysis; assay type: ADME, organism-based; parameters: dose 5 mg/kg, time < 96 hrs, route iv; conditions: in vivo
smiles,measurement,setting,value
CN1CCN(c2cc3c(cc2Nc2nnc(-c4ccc(C(F)(F)F)cc4)s2)nc(-c2ccc(F)cc2)n3C2CC2)CC1,Activity,[1],Dose-Dependent Effect
same,inhibition,[2],Active
same,Cp,[3],771 ng/mL
same,Activity,[4],79.3%
same,microsomal CLint,[5],3.68 µL/min/mg
same,Activity,[6],Dose-Dependent Effect
same,Activity,[7],5.1%
same,concentration at 2 min,[8],549 ng/mL
same,Activity,[9],59.2%
same,MRT last at 96 h,[10],14.9 h
same,half-life,[11],9.94 h
same,solubility at 10 min,[12],1.04 µg/mL
same,Activity,[13],45.6%
same,Activity,[14],Active
same,IC50,[15],16.3 µM
same,Vdss,[16],40.17172 L/kg
same,inhibition,[17],101%
same,Activity,[18],6.9%
same,MRT inf,[19],17.3 h
same,Vd,[20],19 L/kg
same,inhibition,[21],Dose-Dependent Effect
same,MRT inf,[22],15.3 h
same,clearance,[23],24.2 mL/min/kg
same,AUC(0-t) at 96 h,[24],17800 ng·h/mL
same,Activity,[25],Non-Toxic
same,Activity,[26],Dose-Dependent Effect
same,Activity,[27],Active
same,Activity,[28],Non-Toxic
same,inhibition at 10 µM,[29],92.7%
same,Activity,[30],Non-Toxic
same,Cmax,[31],667 ng/mL
